Data from patent publication US7875647B2, “Heteroaryl-pyrazole derivatives as cannabinoid CB1 receptor antagonists” (Green Cross Corporation, priority 2006, dated 2011).
Like-named read-outs stand apart in the source and are kept apart here.

Molecular target: T1, Cannabinoid-1 receptor (CB1R) (Rattus norvegicus, UniProt P20272)
T1 construct: The tissue obtained from the brain of SD rats was homogenized; from tissue; host or cells: brain of SD rats (membrane pellet of the homogenate)
Assay: Cannabinoid-1 receptor (CB1R) binding affinity assay ([3H]CP-55940, rat CB-1 receptor binding protocol)
Conditions: brain tissue of SD rats, [3H]CP-55940, 30° C. 60 min
Procedure: The tissue obtained from the brain of SD rats was homogenized with a Dounce homogenate system in TME (50 mM Tris, 3 mM MgCl2 and 1 mM EDTA, pH 7.4) at 4° C., and the homogenate was centrifuged at 48,000 g for 30 min. at 4° C. The pellet was resuspended in 5 ml of TME and the suspension was divided into aliquots and stored at −70° C. until its use in the following assay.
The tissue concentrations were determined by Bradford protein analysis, and 148 μl of brain tissue of the required concentration was added to the plate. The plate was covered and placed in a 30° C. incubator for 60 min, and then transformed on GF/B filtermat pretreated in polyethylenimine (PEI) using a cell harvester. Each filter was washed five times and dried at 60° C. for 1 hr. Then, the degree of radioactivity retained by the filter was measured using Wallac Microbeta™ (PerkinElmer Life Sciences, Inc., Massachusetts, U.S.A.) and the activity of the compound for inhibiting CB1 receptor was determined therefrom.

T1 sequence (P20272 whole entry): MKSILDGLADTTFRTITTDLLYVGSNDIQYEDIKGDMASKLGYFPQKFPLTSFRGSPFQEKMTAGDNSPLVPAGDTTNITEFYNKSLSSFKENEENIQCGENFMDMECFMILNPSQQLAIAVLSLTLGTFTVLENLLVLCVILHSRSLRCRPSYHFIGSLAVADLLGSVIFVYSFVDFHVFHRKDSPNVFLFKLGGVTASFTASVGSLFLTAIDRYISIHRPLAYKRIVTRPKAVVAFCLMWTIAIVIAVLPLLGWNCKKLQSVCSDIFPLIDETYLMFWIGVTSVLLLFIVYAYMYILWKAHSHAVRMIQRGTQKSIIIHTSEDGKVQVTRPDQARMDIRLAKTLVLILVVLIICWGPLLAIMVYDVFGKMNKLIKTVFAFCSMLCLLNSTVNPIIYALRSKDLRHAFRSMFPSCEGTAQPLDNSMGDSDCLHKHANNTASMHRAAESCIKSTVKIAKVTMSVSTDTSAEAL

Row | IC50 (read-out: IC50) [nM] | SMILES | IC50 (IC50(nM)) [nM]
1 | 15.7 | C=CCOCC(C)(C)c1nnc(-c2nn(-c3ccc(Cl)cc3Cl)c(-c3ccc(Cl)cc3)c2C)o1 [Example 97, 2-(1-(allyloxy)-2-methylpropan-2-yl)-5-(5-(4-chlorophenyl)-1-(2,4-dichlorophenyl)-4-methyl-1H-pyrazol-3-yl)-1,3,4-oxadiazole] | –
2 | 33.7 | COC(C)(C)c1nnc(-c2nn(-c3ccc(Cl)cc3Cl)c(-c3ccc(Cl)cc3)c2C)o1 [Example 98, 2-(5-(4-chlorophenyl)-1-(2,4-dichlorophenyl)-4-methyl-1H-pyrazol-3-yl)-5-(2-methoxypropan-2-yl)-1,3,4-oxadiazole] | –
3 | 13 | Cc1c(-c2nnc(C3(c4ccc(Cl)cc4)CCC3)o2)nn(-c2ccc(Cl)cc2Cl)c1-c1ccc(Cl)cc1 [Example 110, 2-(5-(4-chlorophenyl)-1-(2,4-dichlorophenyl)-4-methyl-1H-pyrazol-3-yl)-5-(1-(4-chlorophenyl)cyclobutyl)-1,3,4-oxadiazole] | –
4 | 3.96 | CCc1c(-c2nnc(C3(c4ccc(Cl)cc4)CC3)o2)nn(-c2ccc(Cl)cc2Cl)c1-c1ccc(Br)cc1 [Example 111, 2-(5-(4-bromophenyl)-1-(2,4-dichlorophenyl)-4-ethyl-1H-pyrazol-3-yl)-5-(1-(4-chlorophenyl)cyclopropyl)-1,3,4-oxadiazole] | –
5 | 7.4 | Cc1c(-c2nnc(C3(c4ccc(Cl)cc4)CC3)o2)nn(-c2ccccc2Cl)c1-c1ccc(Cl)cc1 [Example 112, 2-(1-(2-chlorophenyl)-5-(4-chlorophenyl)-4-methyl-1H-pyrazol-3-yl)-5-(1-(4-chlorophenyl)cyclopropyl)-1,3,4-oxadiazole] | –
6 | – | CCOC(C)(C)c1nnc(-c2nn(-c3ccc(Cl)cc3Cl)c(-c3ccc(Cl)cc3)c2C)o1 [Example 116, 2-(5-(4-chlorophenyl)-1-(2,4-dichlorophenyl)-4-methyl-1H-pyrazol-3-yl)-5-(2-ethoxypropan-2-yl)-1,3,4-oxadiazole] | 23.9
7 | 550 | Cc1c(-c2nnc(C3(c4ccc(Cl)cc4)CC3)o2)nn(-c2ccc(Cl)cc2)c1-c1ccc(Cl)cc1 [Example 119, 2-(1,5-Bis(4-chlorophenyl)-4-methyl-1H-pyrazol-3-yl)-5-(1-(4-chlorophenyl)cyclopropyl)-1,3,4-oxadiazole] | –
8 | – | COc1ccc(C2(c3nnc(-c4nn(-c5ccc(Cl)cc5Cl)c(-c5ccc(Cl)cc5)c4C)o3)CC2)cc1 [Example 129, 2-(5-(4-chlorophenyl)-1-(2,4-dichlorophenyl)-4-methyl-1H-pyrazol-3-yl)-5-(1-(4-methoxyphenyl)cyclopropyl)-1,3,4-oxadiazole] | 9.46
9 | 8.14 | Cc1c(-c2nnc(C3(c4ccc(Cl)cc4Cl)CC3)o2)nn(-c2ccc(Cl)cc2Cl)c1-c1ccc(Cl)cc1 [Example 130, 2-(5-(4-chlorophenyl)-1-(2,4-dichlorophenyl)-4-methyl-1H-pyrazol-3-yl)-5-(1-(2,4-dichlorophenyl)cyclopropyl)-1,3,4-oxadiazole] | –
10 | 7.26 | Cc1ccc(C2(c3nnc(-c4nn(-c5ccc(Cl)cc5Cl)c(-c5ccc(Cl)cc5)c4C)o3)CC2)cc1 [Example 131, 2-(5-(4-chlorophenyl)-1-(2,4-dichlorophenyl)-4-methyl-1H-pyrazol-3-yl)-5-(1-p-tolylcyclopropyl)-1,3,4-oxadiazole] | –
11 | 5.47 | CCc1c(-c2nnc(C3(c4ccc(Cl)cc4)CC3)o2)nn(-c2ccc(Cl)cc2Cl)c1-c1ccc(Cl)cc1 [Example 133, 2-(5-(4-chlorophenyl)-1-(2,4-dichlorophenyl)-4-ethyl-1H-pyrazol-3-yl)-5-(1-(4-chlorophenyl)cyclopropyl)-1,3,4-oxadiazole] | –
12 | 16.3 | Cc1c(-c2nnc(C3(C(F)(F)F)CCC3)o2)nn(-c2ccc(Cl)cc2Cl)c1-c1ccc(Cl)cc1 [Example 135, 2-(5-(4-chlorophenyl)-1-(2,4-dichlorophenyl)-4-methyl-1H-pyrazol-3-yl)-5-(1-(trifluoromethyl)cyclobutyl)-1,3,4-oxadiazole] | –
13 | 74.2 | Cc1c(-c2nnc(CC(F)(F)F)o2)nn(-c2ccc(Cl)cc2Cl)c1-c1ccc(Cl)cc1 [Example 136, 2-(5-(4-chlorophenyl)-1-(2,4-dichlorophenyl)-4-methyl-1H-pyrazol-3-yl)-5-(2,2,2-trifluoroethyl)-1,3,4-oxadiazole] | –
14 | 10 | COc1ccc(-c2c(C)c(-c3nnc(C4(c5ccc(Cl)cc5)CC4)o3)nn2-c2ccc(Cl)cc2Cl)cc1 [Example 138, 2-(1-(4-chlorophenyl)cyclopropyl)-5-(1-(2,4-dichlorophenyl)-5-(4-methoxyphenyl)-4-methyl-1H-pyrazol-3-yl)-1,3,4-oxadiazole] | –
15 | 2.16 | CCc1c(-c2nnc(C3(c4ccc(Cl)cc4)CC3)o2)nn(-c2ccccc2Cl)c1-c1ccc(Cl)cc1 [Example 144, 2-(1-(2-chlorophenyl)-5-(4-chlorophenyl)-4-ethyl-1H-pyrazol-3-yl)-5-(1-(4-chlorophenyl)cyclopropyl)-1,3,4-oxadiazole] | –
16 | 5.75 | CCc1c(-c2nnc(C3(c4ccc(Cl)cc4)CCC3)o2)nn(-c2ccccc2Cl)c1-c1ccc(Cl)cc1 [Example 147, 2-(1-(2-chlorophenyl)-5-(4-chlorophenyl)-4-ethyl-1H-pyrazol-3-yl)-5-(1-(4-chlorophenyl)cyclobutyl)-1,3,4-oxadiazole] | –
17 | 6.05 | CCc1c(-c2nnc(C3(c4ccccc4)CC3)o2)nn(-c2ccc(Cl)cc2Cl)c1-c1ccc(Cl)cc1 [Example 150, 2-(5-(4-chlorophenyl)-1-(2,4-dichlorophenyl)-4-ethyl-1H-pyrazol-3-yl)-5-(1-phenylcyclopropyl)-1,3,4-oxadiazole] | –
18 | 7.05 | CCc1c(-c2nnc(C3(c4ccc(C)cc4)CC3)o2)nn(-c2ccc(Cl)cc2Cl)c1-c1ccc(Cl)cc1 [Example 151, 2-(5-(4-chlorophenyl)-1-(2,4-dichlorophenyl)-4-ethyl-1H-pyrazol-3-yl)-5-(1-p-tolylcyclopropyl)-1,3,4-oxadiazole] | –
19 | 5.62 | CCc1c(-c2nnc(C3(c4ccc(OC)cc4)CC3)o2)nn(-c2ccc(Cl)cc2Cl)c1-c1ccc(Cl)cc1 [Example 152, 2-(5-(4-chlorophenyl)-1-(2,4-dichlorophenyl)-4-ethyl-1H-pyrazol-3-yl)-5-(1-(4-methoxyphenyl)cyclopropyl)-1,3,4-oxadiazole] | –
20 | 5.83 | CCc1c(-c2nnc(C3(c4ccc(Cl)cc4Cl)CC3)o2)nn(-c2ccc(Cl)cc2Cl)c1-c1ccc(Cl)cc1 [Example 153, 2-(5-(4-chlorophenyl)-1-(2,4-dichlorophenyl)-4-ethyl-1H-pyrazol-3-yl)-5-(1-(2,4-dichlorophenyl)cyclopropyl)-1,3,4-oxadiazole] | –
21 | 7.42 | CCc1c(-c2nnc(C3(c4ccc(Cl)cc4)CCC3)o2)nn(-c2ccc(Cl)cc2Cl)c1-c1ccc(Cl)cc1 [Example 154, 2-(5-(4-chlorophenyl)-1-(2,4-dichlorophenyl)-4-ethyl-1H-pyrazol-3-yl)-5-(1-(4-chlorophenyl)cyclobutyl)-1,3,4-oxadiazole] | –
22 | 7.51 | Cc1c(-c2nnc(C3(c4ccc(Cl)cc4)CCC3)o2)nn(-c2ccccc2Br)c1-c1ccc(Cl)cc1 [Example 159, 2-(1-(2-bromophenyl)-5-(4-chlorophenyl)-4-methyl-1H-pyrazol-3-yl)-5-(1-(4-chlorophenyl)cyclobutyl)-1,3,4-oxadiazole] | –
23 | 52.6 | Cc1c(-c2nnc(C3(c4ccc(Cl)cc4)CC3)o2)nn(-c2c(Cl)cccc2Cl)c1-c1ccc(Cl)cc1 [Example 161, 2-(5-(4-chlorophenyl)-1-(2,6-dichlorophenyl)-4-methyl-1H-pyrazol-3-yl)-5-(1-(4-chlorophenyl)cyclopropyl)-1,3,4-oxadiazole] | –
24 | 59.2 | Cc1c(-c2nnc(C3(c4ccc(Cl)cc4)CCC3)o2)nn(-c2c(Cl)cccc2Cl)c1-c1ccc(Cl)cc1 [Example 162, 2-(5-(4-chlorophenyl)-1-(2,6-dichlorophenyl)-4-methyl-1H-pyrazol-3-yl)-5-(1-(4-chlorophenyl)cyclobutyl)-1,3,4-oxadiazole] | –
25 | 41.9 | Cc1c(-c2nnc(C3(c4ccc(Cl)cc4)CC3)o2)nn(-c2cc(Cl)ccc2Cl)c1-c1ccc(Cl)cc1 [Example 167, 2-(5-(4-chlorophenyl)-1-(2,5-dichlorophenyl)-4-methyl-1H-pyrazol-3-yl)-5-(1-(4-chlorophenyl)cyclopropyl)-1,3,4-oxadiazole] | –
26 | 200 | Cc1c(-c2nnc(C3(c4ccc(Cl)cc4)CCC3)o2)nn(-c2cc(Cl)ccc2Cl)c1-c1ccc(Cl)cc1 [Example 168, 2-(5-(4-chlorophenyl)-1-(2,5-dichlorophenyl)-4-methyl-1H-pyrazol-3-yl)-5-(1-(4-chlorophenyl)cyclobutyl)-1,3,4-oxadiazole] | –
27 | 17.9 | COc1ccc(-c2c(C)c(-c3nnc(C4(c5ccc(OC)cc5)CC4)o3)nn2-c2ccc(Cl)cc2Cl)cc1 [Example 172, 2-(1-(2,4-dichlorophenyl)-5-(4-methoxyphenyl)-4-methyl-1H-pyrazol-3-yl)-5-(1-(4-methoxyphenyl)cyclopropyl)-1,3,4-oxadiazole] | –

Row | SMILES | IC50 (read-out: IC50) [nM] | IC50 (IC50(nM)) [nM]
28 | Cc1c(-c2nnc(C3(c4ccc(Cl)cc4)CCC3)o2)nn(-c2cccc(Cl)c2Cl)c1-c1ccc(Cl)cc1 [Example 137, 2-(5-(4-chlorophenyl)-1-(2,3-dichlorophenyl)-4-methyl-1H-pyrazol-3-yl)-5-(1-(4-chlorophenyl)cyclobutyl)-1,3,4-oxadiazole] | 141 | –
